One assay has as its target PI3K alpha (Homo sapiens, UniProt P42336). Description: PI3K-α assay (ADP-Glo enzyme inhibition). The following applies: at 500 nm. Type of assay: biochemical. As to the method:
Compounds were evaluated for their ability to inhibit class I PI3-kinase enzyme alpha as given below. PI3K-α Assay: PI3K alpha (diluted in 12.5 mM Glycine-NaOH (pH 8.5), 50 mM KCl, 2.5 mM MgCl2, 1 mM DTT, 0.05% CHAPS) is assayed in total volume of 20 ul containing 12.5 mM glycine-NaOH (pH 8.5), 50 mM KCl, 2.5 mM MgCl2, 1 mM DTT, 0.05% CHAPS, 0.01 mM ATP and 0.05 mM diC8 PIP2. The enzyme is assayed for 80 min after which 20 ul of ADP-Glo reagent is added. After a further incubation of 40 min, 40 ul of Kinase Detection Buffer is added. The assays are incubated for 40 min and then read on PerkinElmer Envision for 1 sec/well.
For orientation: In ADP-Glo the light output rises with the ADP produced.

Another assay deals with MCF-7 Cell line. Kind of assay: MTT cell proliferation assay, MCF-7. Format: cell-based. The following applies: Homo sapiens, MCF7, 120 h, 5 days. The procedure:
(§1) Human breast cancer cell lines MDAMB231, MFC-7 and human prostate carcinoma cell line PC-3 were obtained from European Collection of Cell Cultures (ECACC). Cells were grown in […] medium supplemented with 10% fetal bovine serum (FBS), penicillin (100 units/ml), streptomycin (100 μg/ml), L-glutamine (0.3 mg/ml), sodium pyruvate ([…]), and NaHCO3 (2 mg/ml). Cells were grown in CO2 incubator (Thermocon Electron Corporation, USA) at 37° C. in an atmosphere of 95% air and 5% CO2 with 98% humidity. Different molecules were dissolved in DMSO and were delivered to cell cultures in complete medium.
(§2) MTT assay was done to determine the viability of the cells and was done as described previously (Kumar et al, 2013). Briefly, 6×10^3 were seeded in 96 well plates and were treated with different concentrations of different molecules for 5 days. 20 μl of MTT dye (2.5 mg/ml) was added 3 h before the termination of the experiment. Formazen crystals were dissolved in 150 μl of DMSO and OD was measured at 570 nm.

The subject of another assay is PC-3 Cell line. Description: MTT cell proliferation assay, PC-3. Format: cell-based. The following applies: Homo sapiens, PC-3, 120 h, 5 days. As to the method:
as §1, §2

[1] abbreviates: read-out: In vitro PI3K α % of inhibition.
Where [2] appears, read: read-out: inhibition against PI3K alpha.

We go through 25 compounds from patent US9951040B2, “1,3,5 -triazine based PI3K inhibitors as anticancer agents and a process for the preparation thereof” (Council of Scientific and Industrial Research, priority 2014, dated 2018).

Read-outs that look alike come from different tables or passages of the source.

PI3K alpha, sequence (P42336 whole entry, species assumed): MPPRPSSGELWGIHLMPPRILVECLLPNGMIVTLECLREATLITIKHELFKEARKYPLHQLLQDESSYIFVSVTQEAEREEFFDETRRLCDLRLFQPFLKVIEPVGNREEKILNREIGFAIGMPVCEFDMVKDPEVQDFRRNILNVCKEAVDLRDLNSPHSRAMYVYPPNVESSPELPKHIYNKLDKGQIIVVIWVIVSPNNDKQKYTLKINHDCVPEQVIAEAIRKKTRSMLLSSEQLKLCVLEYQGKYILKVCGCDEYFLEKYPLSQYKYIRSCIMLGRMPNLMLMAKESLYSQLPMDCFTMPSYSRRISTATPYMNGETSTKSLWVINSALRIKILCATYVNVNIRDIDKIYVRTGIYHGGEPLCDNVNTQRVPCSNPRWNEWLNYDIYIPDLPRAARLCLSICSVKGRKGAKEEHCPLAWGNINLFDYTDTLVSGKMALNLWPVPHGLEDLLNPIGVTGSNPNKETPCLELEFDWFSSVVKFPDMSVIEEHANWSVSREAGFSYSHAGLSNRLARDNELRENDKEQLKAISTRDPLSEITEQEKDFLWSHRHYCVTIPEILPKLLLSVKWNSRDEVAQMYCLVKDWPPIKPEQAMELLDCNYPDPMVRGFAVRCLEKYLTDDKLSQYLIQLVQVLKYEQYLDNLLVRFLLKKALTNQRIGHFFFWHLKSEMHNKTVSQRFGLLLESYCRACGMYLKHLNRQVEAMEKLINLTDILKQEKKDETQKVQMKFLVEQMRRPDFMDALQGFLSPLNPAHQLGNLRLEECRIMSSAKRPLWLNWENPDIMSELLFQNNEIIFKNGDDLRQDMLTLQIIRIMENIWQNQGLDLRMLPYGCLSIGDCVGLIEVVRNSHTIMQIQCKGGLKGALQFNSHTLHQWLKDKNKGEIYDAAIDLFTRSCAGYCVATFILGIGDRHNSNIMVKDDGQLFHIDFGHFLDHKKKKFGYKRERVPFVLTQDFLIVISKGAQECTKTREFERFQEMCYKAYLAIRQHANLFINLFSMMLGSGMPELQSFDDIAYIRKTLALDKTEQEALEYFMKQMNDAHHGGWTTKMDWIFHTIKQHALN
PI3K alpha, sequence (P27986 whole entry partner, species assumed): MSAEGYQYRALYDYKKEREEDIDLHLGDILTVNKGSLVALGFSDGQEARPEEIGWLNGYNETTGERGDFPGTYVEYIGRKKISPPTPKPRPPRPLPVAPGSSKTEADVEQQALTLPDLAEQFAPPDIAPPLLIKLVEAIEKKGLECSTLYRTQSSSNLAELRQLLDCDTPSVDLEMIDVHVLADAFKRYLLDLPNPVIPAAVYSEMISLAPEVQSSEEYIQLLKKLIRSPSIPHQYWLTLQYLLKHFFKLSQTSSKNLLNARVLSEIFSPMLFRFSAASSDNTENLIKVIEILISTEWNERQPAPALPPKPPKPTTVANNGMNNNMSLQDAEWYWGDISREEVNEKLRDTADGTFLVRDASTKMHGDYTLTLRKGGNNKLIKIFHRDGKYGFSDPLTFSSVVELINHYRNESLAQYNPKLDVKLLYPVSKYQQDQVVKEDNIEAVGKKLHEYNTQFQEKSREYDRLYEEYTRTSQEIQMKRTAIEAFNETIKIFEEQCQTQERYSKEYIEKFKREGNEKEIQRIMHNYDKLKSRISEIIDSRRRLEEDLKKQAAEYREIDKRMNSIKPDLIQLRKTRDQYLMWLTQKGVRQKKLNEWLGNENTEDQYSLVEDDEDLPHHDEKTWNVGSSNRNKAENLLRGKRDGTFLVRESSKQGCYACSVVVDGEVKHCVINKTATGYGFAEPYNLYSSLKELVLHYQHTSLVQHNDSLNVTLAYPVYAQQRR

With `FC(F)c1nc2ccccc2n1-c1nc(N2CCOCC2)nc(N2CCC(Nc3ccc(OC(F)(F)F)cc3)CC2)n1` [1B23, 1-(4-(2-(difluoromethyl)-1H-benzo[d]imidazol-1-yl)-6-morpholino-1,3,5-triazin-2-yl)-N-(4-(trifluoromethoxy)phenyl)piperidin-4-amine], the inhibition at 0.5 µM at PI3K alpha (setting [1]) and on PI3K alpha (setting [2]) was above 70% each time. The inhibition at 10 µM with MCF-7 Cell line and in the assay with PC-3 Cell line was 30 to 50% in each case.
Consider `COc1ccccc1NC1CCN(c2nc(N3CCOCC3)nc(-n3c(C(F)F)nc4ccccc43)n2)CC1` [1B28, 1-(4-(2-(difluoromethyl)-1H-benzo[d]imidazol-1-yl)-6-morpholino-1,3,5-triazin-2-yl)-N-(2-methoxyphenyl)piperidin-4-amine], for which the inhibition at 0.5 µM at PI3K alpha (setting [1]) and at PI3K alpha (setting [2]) was above 70% throughout. For the same compound, the inhibition at 10 µM was above 50% in the assay with MCF-7 Cell line and 30 to 50% with PC-3 Cell line.
Take `Clc1ccccc1NC1CCN(c2nc(N3CCOCC3)nc(-n3cnc4ccccc43)n2)CC1` [1B39, 1-(4-(1H-benzo[d]imidazol-1-yl)-6-morpholino-1,3,5-triazin-2-yl)-N-(2-chlorophenyl)piperidin-4-amine]: at PI3K alpha (setting [1]), the inhibition at 0.5 µM was 50 to 70%.
Still for that read-out and setting: next, `Fc1ccc(N(c2ccncc2C(F)(F)F)C2CCN(c3nc(N4CCOCC4)nc(-n4c(C(F)F)nc5ccccc54)n3)CC2)cc1` [1B45, N-(1-(4-(2-(difluoromethyl)-1H-benzo[d]imidazol-1-yl)-6-morpholino-1,3,5-triazin-2-yl)piperidin-4-yl)-N-(4-fluorophenyl)-3-(trifluoromethyl)pyridin-4-amine]: 50 to 70%.
Regarding `Fc1ccc(N(c2ccc(C(F)(F)F)cc2)C2CCN(c3nc(N4CCOCC4)nc(-n4c(C(F)F)nc5ccccc54)n3)CC2)cc1` [1B43, 1-(4-(2-(difluoromethyl)-1H-benzo[d]imidazol-1-yl)-6-morpholino-1,3,5-triazin-2-yl)-N-(4-fluorophenyl)-N-(4-(trifluoromethyl)phenyl)piperidin-4-amine], the inhibition at 0.5 µM at PI3K alpha (setting [1]) and on PI3K alpha (setting [2]) was above 70% each time.
As to `FC(F)(F)c1ccc(NC2CCN(c3nc(N4CCOCC4)nc(-n4cnc5ccccc54)n3)CC2)cc1` [1B35, 1-(4-(1H-benzo[d]imidazol-1-yl)-6-morpholino-1,3,5-triazin-2-yl)-N-(4-(trifluoromethyl)phenyl)piperidin-4-amine], the inhibition at 0.5 µM at PI3K alpha (setting [1]) was 50 to 70%.
For `FC(F)(F)c1ccccc1OC1CCN(c2nc(N3CCOCC3)nc(N(c3ccccc3)c3ccccc3)n2)CC1` [1A19, 4-morpholino-N,N-diphenyl-6-(4-(2-(trifluoromethyl)phenoxy)piperidin-1-yl)-1,3,5-triazin-2-amine], the inhibition at 0.5 µM at PI3K alpha (setting [1]) and at PI3K alpha (setting [2]) was above 70% each time.
With `Cc1ccc(OC2CCN(c3nc(N4CCOCC4)nc(N(C(=O)C(F)(F)F)c4ccccc4)n3)CC2)cc1` [1A8, 2,2,2-trifluoro-N-(4-morpholino-6-(4-(p-tolyloxy)piperidin-1-yl)-1,3,5-triazin-2-yl)-N-phenylacetamide], the inhibition at 0.5 µM at PI3K alpha (setting [1]) and on PI3K alpha (setting [2]) was above 70% throughout.
Turning to `Fc1cccc(OC2CCN(c3nc(N4CCOCC4)nc(-n4c(C(F)F)nc5ccccc54)n3)CC2)c1` [1B8, 4-(4-(2-(difluoromethyl)-1H-benzo[d]imidazol-1-yl)-6-(4-(3-fluorophenoxy)piperidin-1-yl)-1,3,5-triazin-2-yl)morpholine], the inhibition at 0.5 µM at PI3K alpha (setting [1]) and at PI3K alpha (setting [2]) was above 70% each time.
As to `CN(C)c1nc(N2CCOCC2)nc(N2CCC(Oc3ccc(F)cc3)CC2)n1` [1A17, 4-(4-(4-fluorophenoxy)piperidin-1-yl)-N,N-dimethyl-6-morpholino-1,3,5-triazin-2-amine], the inhibition at 0.5 µM at PI3K alpha (setting [1]) lay in the range of 50 to 70%.
Same read-out and setting: the value for `Cc1ccc(OC2CCN(c3nc(N4CCOCC4)nc(-n4c(C(F)F)nc5ccccc54)n3)CC2)cc1` [1B10, 4-(4-(2-(difluoromethyl)-1H-benzo[d]imidazol-1-yl)-6-(4-(p-tolyloxy)piperidin-1-yl)-1,3,5-triazin-2-yl)morpholine] was 50 to 70%.
The same measure, in the same setting: next, `O=C(N(c1ccccc1)c1nc(N2CCOCC2)nc(N2CCC(Oc3ccccc3)CC2)n1)C(F)(F)F` [1A4, 2,2,2-trifluoro-N-(4-morpholino-6-(4-phenoxypiperidin-1-yl)-1,3,5-triazin-2-yl)-N-phenylacetamide]: 50 to 70%; `FC(F)(F)Oc1ccc(OC2CCN(c3nc(N4CCOCC4)nc(-n4cnc5ccccc54)n3)CC2)cc1` [1B16, 4-(4-(1H-benzo[d]imidazol-1-yl)-6-(4-(4-(trifluoromethoxy)phenoxy)piperidin-1-yl)-1,3,5-triazin-2-yl)morpholine]: 50 to 70%.
As for `O=C(N(c1ccccc1)c1nc(N2CCOCC2)nc(N2CCC(Oc3ccccc3C(F)(F)F)CC2)n1)C(F)(F)F` [1A10, 2,2,2-trifluoro-N-(4-morpholino-6-(4-(2-(trifluoromethyl)phenoxy)piperidin-1-yl)-1,3,5-triazin-2-yl)-N-phenylacetamide], the inhibition at 0.5 µM at PI3K alpha (setting [1]) and at PI3K alpha (setting [2]) was above 70% throughout.
Take `Clc1ccccc1OC1CCN(c2nc(N3CCOCC3)nc(-n3cnc4ccccc43)n2)CC1` [1B19, 4-(4-(1H-benzo[d]imidazol-1-yl)-6-(4-(2-chlorophenoxy)piperidin-1yl)-1,3,5-triazin-2-yl)morpholine]: the inhibition at 0.5 µM on PI3K alpha (setting [1]) and at PI3K alpha (setting [2]) was above 70% in each case.
Take `Cc1ccc(OC2CCN(c3nc(N(C)C)nc(N4CCOCC4)n3)CC2)cc1` [1A16, N,N-dimethyl-4-morpholino-6-(4-(p-tolyloxy)piperidin-1-yl)-1,3,5-triazin-2-amine]: the inhibition at 0.5 µM at PI3K alpha (setting [1]) was in the range of 50 to 70%.
Regarding `CN(c1ccc(F)cc1)c1nc(N2CCOCC2)nc(N2CCC(Oc3ccc(F)cc3)CC2)n1` [1A3, 4-(4-(4-fluorophenoxy)piperidin-1-yl)-N-(4-fluorophenyl)-N-methyl-6-morpholino-1,3,5-triazin-2-amine], the inhibition at 0.5 µM at PI3K alpha (setting [1]) and on PI3K alpha (setting [2]) was above 70% throughout.
Take `FC(F)c1nc2ccccc2n1-c1nc(N2CCOCC2)nc(N2CCC(Nc3ccccc3C(F)(F)F)CC2)n1` [1B29, 1-(4-(2-(difluoromethyl)-1H-benzo[d]imidazol-1-yl)-6-morpholino-1,3,5-triazin-2-yl)-N-(2-(trifluoromethyl)phenyl)piperidin-4-amine]: the inhibition at 0.5 µM at PI3K alpha (setting [1]) lay within 50 to 70%.
The same measure, in the same setting: next, `O=C(N(C(=O)C(F)(F)F)c1nc(N2CCOCC2)nc(N2CCC(Oc3ccccc3)CC2)n1)C(F)(F)F` [1A12, 2,2,2-trifluoro-N-(4-morpholino-6-(4-phenoxypiperidin-1-yl)-1,3,5-triazin-2-yl)-N-(2,2,2-trifluoroacetyl)acetamide]: 50 to 70%; `Fc1ccc(N(c2ccc(Cl)cc2)C2CCN(c3nc(N4CCOCC4)nc(-n4c(C(F)F)nc5ccccc54)n3)CC2)cc1` [1B44, N-(4-chlorophenyl)-1-(4-(2-(difluoromethyl)-1H-benzo[d]imidazol-1-yl)-6-morpholino-1,3,5-triazin-2-yl)-N-(4-fluorophenyl)piperidin-4-amine]: 50 to 70%.
With `Fc1ccc(N(c2ccc(F)cc2)C2CCN(c3nc(N4CCOCC4)nc(-n4c(C(F)F)nc5ccccc54)n3)CC2)cc1` [1B41, 1-(4-(2-(difluoromethyl)-1H-benzo[d]imidazol-1-yl)-6-morpholino-1,3,5-triazin-2-yl)-N,N-bis(4-fluorophenyl)piperidin-4-amine], the inhibition at 0.5 µM at PI3K alpha (setting [1]) and at PI3K alpha (setting [2]) was above 70% in each case.
Consider `Fc1ccc(OC2CCN(c3nc(N4CCOCC4)nc(-n4cnc5ccccc54)n3)CC2)cc1` [1B17, 4-(4-(1H-benzo[d]imidazol-1-yl)-6-(4-(4-fluorophenoxy)piperidin-1-yl)-1,3,5-triazin-2-yl)morpholine], for which the inhibition at 0.5 µM at PI3K alpha (setting [1]) is 50 to 70%.
Consider `FC(F)c1nc2ccccc2n1-c1nc(N2CCOCC2)nc(N2CCC(Oc3ccccc3C(F)(F)F)CC2)n1` [1B4, 4-(4-(2-(difluoromethyl)-1H-benzo[d]imidazol-1-yl)-6-(4-(2-(trifluoromethyl)phenoxy)piperidin-1-yl)-1,3,5-triazin-2-yl)morpholine], for which the inhibition at 0.5 µM on PI3K alpha (setting [1]) and at PI3K alpha (setting [2]) was above 70% in each case.
For `Fc1ccccc1NC1CCN(c2nc(N3CCOCC3)nc(-n3cnc4ccccc43)n2)CC1` [1B38, 1-(4-(1H-benzo[d]imidazol-1-yl)-6-morpholino-1,3,5-triazin-2-yl)-N-(2-fluorophenyl)piperidin-4-amine], at PI3K alpha (setting [1]), the inhibition at 0.5 µM was 50 to 70%.
In the case of `CN(c1ccccc1)c1nc(N2CCOCC2)nc(N2CCC(Oc3ccccc3F)CC2)n1` [1A2, 4-(4-(2-fluorophenoxy)piperidin-1-yl)-N-methyl-6-morpholino-N-phenyl-1,3,5-triazin-2-amine], the inhibition at 0.5 µM on PI3K alpha (setting [1]) is 50 to 70%.

Broadly, the inhibition is the change of the read-out against control, counted positive when it falls.
